This note sets out measurements from EP0003359A1, “Specific optical isomers of 2-aminoethyl-1,4-benzodioxanes, process for their preparation and their pharmaceutical compositions” (CIBA-GEIGY AG, priority 1978, dated 1979).

Test [1] deals with genetisch hypertensive Ratten. As to the kind of experiment: Blood pressure lowering in hypertensive rats (indirect sphygmomanometry on the tail). It is filed as in vivo. The settings on record: perorale Dosen von 5 mg/kg/Tag und darunter, preferably as hydrochloride. An excerpt: (§1) Die Verbindungen der Erfindung zeigen wertvolle pharmakologische Eigenschaften, in erster Linie hypotensive, antihypertensive und bradykardische Wirkungen, welche unter anderem durch ihre a- und ß-adrenergischblockierenden, vasodilatorischen und ihre hemmenden Effekte auf das zentrale sympatische Nervensystem zustandekommen. Diese Wirkungen können in Tierversuchen, vorzugsweise an Säugetieren, wie Ratten, Katzen oder Hunden, als Testobjekte nachgewiesen werden. Die Tiere können normotensiv oder hypertensiv, z.B. genetisch hypertensive Ratten sein. Die genannten Verbindungen können ihnen enteral oder parenteral, vorzugsweise oral oder intravenös, z.B. durch Gelatine-Kapseln oder in Form von Stärke enthaltenden Suspensionen bzw. wässerigen Lösungen, verabreicht werden. Die verwendete Dosis kann in einem Bereich von ungefähr zwischen 0,01 und 50 mg/kg/Tag, vorzugsweise ungefähr O,1 und 10 mg/kg/Tag, insbesondere ungefähr 1 und 5 mg/kg/Tag liegen. Die blutdrucksenkende Wirkung wird entweder direkt mit einem Katheter, der z.B. in die femurale Arterie des Hundes eingeführt ist, oder indirekt durch Sphygmomanometrie am Rattenschwanz, und einem Uebertragungsinstrument, welches den Blutdruck vor und nach der Verabreichung des Wirkstoffes in mm Hg angibt, registriert. […]

The subject of test [2] is anesthätisierte, bilateral vagotomisierte Bastardhunde. As to the kind of experiment: Bradycardic effect in anaesthetised, bilaterally vagotomised dogs with heart rate raised by electrical stimulation. It is filed as in vivo. The note with it: Canis lupus familiaris, intravenous, read-out: intravenöse Dosis, nach der die bradykardischen Wirkungen registriert werden können.
From the text: as §1

Structures can show the parent of a compound that is named as a salt.

Consider `C[C@H](CCc1ccccc1)NC[C@H](O)[C@H]1COc2ccccc2O1` [ℓ-erythro-2R-[2-(4-Phenyl-2R-butylamino)-1S-hydroxyäthyl]-1,4-benzodioxan-hydrochlorid], for which the “blutdrucksenkende Wirkung” value in test [1] was “sehr wirksam”. In addition, the minimal effective dose in test [2] was 0.03 mg/kg.
